Experimental findings from patent publication US11707440B2 (priority 2017, dated 2023) are described below.

Bounds are passed on as bounds.

Common to all, as to type: in vivo, human
Data set [1] deals with subjects with MDD at imminent risk for suicide. Description: SIBAT clinical global judgment of suicide risk, […]2001. The settings on record: Baseline(DB), predose Day 1; ITT analysis set. From the text:
The clinical global judgment of suicide risk (Module 8) summarizes clinician overall judgment of suicide risk as derived from information gathered from the full SIBAT tool. It operates like numerous other CGI-severity scales that have been used in other psychiatric studies. Change in the clinical global judgment of suicide risk is designed to directly identify clinical meaningful changes in suicidal ideation and to permit classification of suicide risk.
The analysis of the change in SIBAT score was based on an ANCOVA model on ranks of change in SIBAT with treatment, antidepressant therapy, and analysis center as factors, and baseline value (unranked) as a covariate. There was a significant difference (two-sided […]) between the two treatment groups when comparing the mean rank of change from baseline at Day 1: 4-hours postdose in favor of esketamine 84 mg See, Table 58. See, FIG. 39. […] This difference was not evident at the Day 25 DB endpoint. See, FIG. 40, which is based on LOCF data and analyzed using Cochran-Mantel-Haenszel test controlling for analysis center and antidepressant therapy.

A further data set concerns subjects with TRD. The note with it: among the 76 subjects who discontinued intranasal esketamine. From the text: The efficacy and safety analyses are based on the full (IND) analysis set and the full (OP/MA) analysis set. The full (IND) analysis set is defined as all subjects who receive at least 1 dose of intranasal study medication or 1 dose of oral antidepressant in the open-label IND phase (for direct-entry and transferred-entry non-responder subjects). The full (OP/MA) analysis is defined as all subjects who receive at least 1 dose of intranasal study medication or 1 dose of oral antidepressant in the OP/MA phase. Safety variables include cognition function over time, treatment-emergent adverse events (TEAEs), including TEAEs of special interest, vital signs over time, Clinician-Administered Dissociative Symptom Scale (CADDS) over time, and Modified Observer's Assessment of Alertness/Sedation (MOAA/S) score≤3. Efficacy variables include the MADRS which consists of 10 items that cover all the core depressive symptoms: each item is scored from 0 (symptom is not present or is normal) to 6 (severe or continuous presence of the symptom). A total score (0 to 60) is calculated by summing the scores of all 10 items. A higher score represents a more severe condition.
Overall, 90.1% of subjects experienced at least one TEAE in the IND and OP/MA phases.

The subject of data set [2] is patients with treatment-resistant depression (TRD). The experiment in a line: GAD-7, Example 7. The method, then: (§1) Overall illness severity was assessed on the Clinical Global Impression of Severity (CGI-S) scale (Guy, “ECDEU Assessment Manual for Psychopharmacology-Revised (DHEW Publ No ADM 76-338)”, Rockville, Md.: U.S. Department of Health, Education, and Welfare, Public Health Service, Alcohol, Drug Abuse, and Mental Health Administration, NIMH Psychopharmacology Research Branch, Division of Extramural Research Programs; 1976, pp 218-222). Participants assessed their severity of anxiety on the Generalized Anxiety Disorder 7-item (GADS-7) Scale (See, Tables 157 and 15). See, Spitzer, “A brief measure for assessing generalized anxiety disorder—the GAD-7”, Arch. Intern. Med., 2006, 166(10):1092-1097.

Data set [3] has the same test system. Description: CGI-S, Example 7. On the procedure:
as §1

For data set [4], the system named is subjects with MDD at imminent risk for suicide. The settings on record: esketamine 84 mg. On the procedure:
Transient blood pressure increases peaked for the esketamine group at approximately 40 minutes post dose with the maximum mean increases (across all dosing days) in systolic BP being 8.7 in the placebo group and 16.7 in the esketamine 84 mg group. The maximum mean increases (across all dosing days) in diastolic BP were 7.6 in the placebo group and 11.9 in the esketamine 84 mg group. […] See, FIGS. 46 and 47.

[5] abbreviates: 28 mg, Period 1, first day to day 8.
Where [6] appears, read: 28 mg, Period 2, first day to day 8 of period.
Where [7] appears, read: 56 mg, Period 1, first day to day 8.
Where [8] appears, read: 56 mg, Period 2, first day to day 8 of period.
The mark [9] stands for this setting: 84 mg, Period 1, first day to day 8.
Where [10] appears, read: 84 mg, Period 2, first day to day 8 of period.

In the case of `CN[C@]1(c2ccccc2Cl)CCCCC1=O` [Esketamine 84 mg], the “SIBAT Clinical Global Judgment of Suicide Risk, Median (Range)” value in data set [1] was 6.0 (5; 6).

Regarding `CN[C@]1(c2ccccc2Cl)CCCCC1=O` [esketamine, (S)-2-(2-chlorophenyl)-2-(methylamino)cyclohexanone], the “Subjects with a discontinuation AE considered related (possibly, probably, or very likely) to esketamine” value with subjects with TRD is 51 subjects. The “GAD-7 LS mean difference from placebo” value in data set [2] (28 mg, Period 1) is on record as −0.21; in data set [2] (56 mg, Period 1), −1.40; in data set [2] (56 mg, Period 2) it was 0.60. Also, the “GAD-7 change from baseline, LS mean” value in data set [2] (setting [5]) is recorded as −1.5; in data set [2] (setting [6]), −1.6; in data set [2] (setting [7]) it was −3.1; in data set [2] (setting [8]), 1.0; in data set [2] (setting [9]), −5.1; in data set [2] (setting [10]), −0.9. The “CGI-S Median Change” value in data set [3] (setting [5]) is on record as −1.0; in data set [3] (setting [6]), −1.0; in data set [3] (setting [7]), −1.0; in data set [3] (setting [8]) it was −1.0; in data set [3] (setting [9]) it was −0.5; in data set [3] (setting [10]), −1.0. In addition, the “CGI-S Median” value in data set [3] (28 mg, Period 1 end point) is on record as 4.0; in data set [3] (28 mg, Period 2 end point), 4.0; in data set [3] (56 mg, Period 1 end point) it was 4.0; in data set [3] (56 mg, Period 2 endpoint) it was 5.0; in data set [3] (84 mg, Period 1 end point), 4.0; in data set [3] (84 mg, Period 2 endpoint), 4.0. Besides, the “Maximum mean increase in diastolic BP (across all dosing days)” value in data set [4] was found to be 11.9. The “Maximum mean increase in systolic BP (across all dosing days)” value in data set [4] worked out at 16.7. Also, the “Time of return of blood pressure to normal range” value in data set [4] is no more than 2 hours post dose.
